Values joined by “and” are separate entries in the source; they are usually repeats but may differ in a detail not shown here. Equal values may be shown once. “Also recorded” adds a separate entry of the source. Read-outs that look alike come from different tables or passages of the source.
How the values were obtained:
SARS-CoV-2 = conditions: cited from earlier work
[1] = system: Vaccinia virus (Orthopoxvirus); conditions: monohydrochloride; cited from earlier work
[2] = system: Poliovirus type 1 (ATCC VR-192); format: cell-based
[3] = in vivo; cited from earlier work
[4] = system: Herpes simplex virus type 1; conditions: 200 ppm in water, after 5 and 60 minutes; monohydrochloride; cited from earlier work
[5] = system: Coronavirus 229E (ATCC VR-740); format: cell-based, human Coronavirus 229E
[6] = rats; cited from earlier work
[7] = system: Bovine Parainfluenza 3 virus (ATCC VR-281); conditions: 200 ppm in water, after 5 and 60 minutes; monohydrochloride; cited from earlier work
[8] = system: murine Norovirus (cepa S99 Berlin); format: cell-based
[9] = system: Adenovirus type 5 (ATCC VR-5); format: cell-based

For `CCO` [ethanol], the “effect on virus infectivity” value (SARS-CoV-2; ethanol alone at <23%) is listed as “no effect”.
For “L-arginine, N^α-lauroyl-ethyl ester monohydrochloride [LAE®]”, the “antiviral activity, remaining virus (TCID50)” value [1] is listed as “No remaining virus was detected; also recorded: effective”, the “effectiveness against the virus” value [2] is listed as “not effective” and the “viricidal activity (reduction ≥4 log10)” value [2] is listed as “has no viricidal activity”. For the same molecule, the “Reduction with 95% confidence interval after 30 minutes” value ([2]; monohydrochloride) was 2.33±0.53 and 1.82±0.52 and 1.49±0.46 and 1.82 ± 0.52 log10 and 1.49 ± 0.46 log10 and 2.33 ± 0.53 log10, the “toxicity to animals and humans” value [3] was “completely harmless” and the Level of cytotoxicity (MRC-5, ref. FTMR cells) was 0.5. For the same molecule, the “antiviral activity, remaining virus (TCID50)” value [4] was “No remaining virus was detected; also recorded: effective”, the “effectiveness against the virus” value [5] was “effective” and the “reduction (maximum effects)” value [5] was > 4 logo. The “viricidal activity (reduction ≥4 log10)” value [5] was “has viricidal activity”, the absorption and metabolization [6] was “fast absorption and metabolization” and the Level of cytotoxicity (Vero, ref. FTVE cells) was 0.5. For the same molecule, the “antiviral activity, remaining virus (TCID50)” value [7] was “No remaining virus was detected; also recorded: effective”.
With `C=O` [Formaldehyde, formaldehyde, reference compound] the “log10 TCID50 after 30 min” value [2] was 5.00 log10 TCID50, the “log10 TCID50 after 60 min” value [2] was 3.07 log10 TCID50 and the Level of cytotoxicity (MRC-5, ref. FTMR cells; human) was 0.5. The “log10 TCID50 after 30 min” value [8] was 3.16 log10 TCID50, the “log10 TCID50 after 60 min” value [8] was 1.74 log10 TCID50 and the “log10 TCID50 after 5 min” value [5] was 3.58 log10 TCID50. For the same molecule, the “log10 TCID50 after 15 min” value [5] was 2.49 log10 TCID50, the “log10 TCID50 after 30 min” value [9] was 2.58 log10 TCID50 and the “log10 TCID50 after 60 min” value [9] was 1.33 log10 TCID50. For the same molecule, the Level of cytotoxicity (Vero, ref. FTVE cells; African green monkey) was 0.5.
In the case of `[H]/N=C(\N/C(=N/[H])NCCCCCCNC(=N)NC(=N)Nc1ccc(Cl)cc1)Nc1ccc(Cl)cc1` [chlorhexidine], the “reduction in viral titres” value (SARS-CoV-2) is given as < 2 log fold.

From patent US20230151302A1, “Cationic surfactants, in particular ethyl lauroyl arginate LAE, for treating or preventing infections and contaminations with Coronavirus” (priority 2020, published 2023)
